How the values were obtained:
Assay in all cases: relative viability (nuclei count vs DMSO), 5 days (fraction); higher = more cells survive
FH535 + Navitoclax = compound: CC1=C(C=CC(=C1)[N+](=O)[O-])NS(=O)(=O)C2=C(C=CC(=C2)Cl)Cl [FH535] + CC1(C)CCC(c2ccc(Cl)cc2)=C(CN2CCN(c3ccc(C(=O)NS(=O)(=O)c4ccc(N[C@H](CCN5CCOCC5)CSc5ccccc5)c(S(=O)(=O)C(F)(F)F)c4)cc3)CC2)C1 [Navitoclax] (partner 0.5 µM)
Summary of the method: (§1)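 Lung cancer cell lines, seeded in 1536-well plates, were treated the following day by pin tool with a single drug or with five library-drug doses (not always all listed) in √10 steps on top of a fixed anchor-drug dose. Cells were fixed and nuclei stained in one step after 5 days, and nuclei were counted. Relative viability is the nuclei count for treated wells divided by that for vehicle wells, reported as medians of duplicate plates.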

FH535 + Decitabine = compound: CC1=C(C=CC(=C1)[N+](=O)[O-])NS(=O)(=O)C2=C(C=CC(=C2)Cl)Cl [FH535] + Nc1ncn([C@H]2C[C@H](O)[C@@H](CO)O2)c(=O)n1 [Decitabine] (partner 2 µM)
Summary of the method: as §1

FH535 + Luminespib = compound: CC1=C(C=CC(=C1)[N+](=O)[O-])NS(=O)(=O)C2=C(C=CC(=C2)Cl)Cl [FH535] + CCNC(=O)c1noc(-c2cc(C(C)C)c(O)cc2O)c1-c1ccc(CN2CCOCC2)cc1 [Luminespib] (partner 0.01 µM)
Summary of the method: as §1

FH535 + AZD7762 = compound: CC1=C(C=CC(=C1)[N+](=O)[O-])NS(=O)(=O)C2=C(C=CC(=C2)Cl)Cl [FH535] + NC(=O)Nc1cc(-c2cccc(F)c2)sc1C(=O)N[C@H]1CCCNC1 [AZD7762] (partner 0.2 µM)
Summary of the method: as §1

FH535 + Trametinib = compound: CC1=C(C=CC(=C1)[N+](=O)[O-])NS(=O)(=O)C2=C(C=CC(=C2)Cl)Cl [FH535] + CC(=O)Nc1cccc(-n2c(=O)n(C3CC3)c(=O)c3c(Nc4ccc(I)cc4F)n(C)c(=O)c(C)c32)c1 [Trametinib] (partner 0.02 µM)
Summary of the method: as §1

| Cell Line | relative viability (FH535 + Navitoclax; first compound 0.04 µM) | relative viability (FH535 + Navitoclax; first compound 0.1265 µM) | relative viability (FH535 + Navitoclax; first compound 0.4 µM) | relative viability (FH535 + Navitoclax; first compound 1.265 µM) | relative viability (FH535 + Decitabine; first compound 0.04 µM) | relative viability (FH535 + Decitabine; first compound 0.1265 µM) | relative viability (FH535 + Decitabine; first compound 0.4 µM) | relative viability (FH535 + Decitabine; first compound 1.265 µM) | relative viability (FH535 + Luminespib; first compound 0.04 µM) | relative viability (FH535 + Luminespib; first compound 0.1265 µM) | relative viability (FH535 + Luminespib; first compound 0.4 µM) | relative viability (FH535 + Luminespib; first compound 1.265 µM) | relative viability (FH535 + AZD7762; first compound 0.04 µM) | relative viability (FH535 + AZD7762; first compound 0.1265 µM) | relative viability (FH535 + AZD7762; first compound 0.4 µM) | relative viability (FH535 + AZD7762; first compound 1.265 µM) | relative viability (FH535 + Trametinib; first compound 0.04 µM) | relative viability (FH535 + Trametinib; first compound 0.1265 µM) | relative viability (FH535 + Trametinib; first compound 0.4 µM) | relative viability (FH535 + Trametinib; first compound 1.265 µM) |
| --- | --- | --- | --- | --- | --- | --- | --- | --- | --- | --- | --- | --- | --- | --- | --- | --- | --- | --- | --- | --- |
| A549 | 1.28 | 1.16 | 1.25 | 0.936 | 0.251 | 0.228 | 0.161 | 0.222 | – | – | – | – | – | – | – | – | – | – | – | – |
| ABC-1 | – | – | – | – | 1.07 | 0.997 | 0.994 | 1.01 | 0.543 | 0.861 | 0.627 | 0.337 | 0.706 | 0.664 | 0.756 | 0.549 | – | – | – | – |
| COR-L23 | 0.992 | 1.14 | 0.886 | 0.567 | 0.302 | 0.424 | 0.444 | 0.314 | 0.73 | 0.612 | 0.5 | 0.435 | – | – | – | – | 0.52 | 0.604 | 0.515 | 0.371 |
| COR-L 105 | 0.725 | 0.864 | 0.702 | 0.637 | 0.634 | 0.735 | 0.64 | 0.687 | 0.499 | 0.952 | 0.738 | 0.671 | – | – | – | – | 0.483 | 0.404 | 0.422 | 0.444 |
| LCLC-103H | – | – | – | – | 0.672 | 0.787 | 0.718 | 0.503 | 0.936 | 1.02 | 0.862 | 0.616 | 0.737 | 0.734 | 0.744 | 0.67 | 0.711 | 0.665 | 0.707 | 0.5 |
| NCI-H358 | – | – | – | – | 0.151 | 0.219 | 0.205 | 0.182 | 0.325 | 0.368 | 0.293 | 0.308 | 0.495 | 0.571 | 0.529 | 0.252 | 0.134 | 0.143 | 0.124 | 0.127 |
| NCI-H520 | 1.11 | 1.09 | 1.06 | 0.882 | 0.462 | 0.488 | 0.521 | 0.355 | 0.159 | 0.212 | 0.257 | 0.24 | – | – | – | – | 0.703 | 0.691 | 0.696 | 0.684 |
| NCI-H522 | – | – | – | – | 0.588 | 0.697 | 0.712 | 0.698 | 1.29 | 1.17 | 1.16 | 0.996 | 0.717 | 0.947 | 0.688 | 0.864 | 0.731 | 0.968 | 0.804 | 0.622 |
| NCI-H650 | – | – | – | – | 0.315 | 0.359 | 0.333 | 0.32 | 0.639 | 0.732 | 0.796 | 0.619 | 0.877 | 1.03 | 1.18 | 0.67 | 0.887 | 0.953 | 1.04 | 0.795 |
| NCI-H661 | – | – | – | – | 0.546 | 0.609 | 0.566 | 0.46 | 0.893 | 0.928 | 0.841 | 0.56 | – | – | – | – | 0.526 | 0.686 | 0.553 | 0.365 |
| NCI-H1650 | 1.17 | 1.27 | 1.17 | 0.856 | 0.323 | 0.427 | 0.46 | 0.442 | 0.175 | 0.218 | 0.201 | 0.189 | – | – | – | – | 0.476 | 0.714 | 0.459 | 0.584 |
| NCI-H1703 | 1.28 | 1.18 | 1.21 | 0.88 | – | – | – | – | – | – | – | – | 0.127 | 0.136 | 0.109 | 0.132 | – | – | – | – |
| NCI-H2009 | 1.11 | 1.13 | 1.09 | 0.847 | 0.339 | 0.363 | 0.434 | 0.391 | 0.996 | 1.02 | 0.938 | 0.686 | – | – | – | – | 0.306 | 0.316 | 0.251 | 0.24 |
| NCI-H2023 | 1 | 1 | 1.04 | 0.804 | 0.218 | 0.223 | 0.236 | 0.213 | 0.838 | 0.704 | 0.681 | 0.64 | – | – | – | – | 0.542 | 0.641 | 0.598 | 0.44 |
| NCI-H2228 | 0.826 | 1.1 | 0.841 | 0.728 | – | – | – | – | 0.127 | 0.152 | 0.156 | 0.0969 | – | – | – | – | 0.376 | 0.368 | 0.464 | 0.413 |
| NCI-H2342 | – | – | – | – | 0.706 | 0.632 | 0.736 | 0.568 | 0.738 | 0.713 | 0.705 | 0.6 | 0.491 | 0.482 | 0.482 | 0.354 | 0.794 | 0.823 | 0.9 | 0.842 |
| SK-LU-1 | 0.89 | 1.01 | 0.688 | 0.622 | 0.63 | 0.517 | 0.626 | 0.44 | 0.181 | 0.21 | 0.198 | 0.214 | – | – | – | – | 0.476 | 0.49 | 0.501 | 0.418 |
| SK-MES-1 | 1.16 | 1.22 | 1.12 | 0.929 | 0.356 | 0.347 | 0.429 | 0.386 | 0.814 | 0.907 | 0.797 | 0.56 | – | – | – | – | 0.503 | 0.541 | 0.577 | 0.552 |
| SW 1573 | 0.938 | 1.01 | 0.837 | 0.768 | 0.464 | 0.515 | 0.52 | 0.411 | 0.237 | 0.346 | 0.193 | 0.638 | – | – | – | – | 0.686 | 0.528 | 0.651 | 0.376 |
| UMC-11 | 0.312 | 0.315 | 0.298 | 0.262 | 0.609 | 0.529 | 0.594 | 0.576 | 1.12 | 1.03 | 1.02 | 0.763 | – | – | – | – | 0.663 | 0.525 | 0.576 | 0.684 |
